Measured values reported in patent US8759363B2, “Quinazoline-based T cell proliferation inhibitors” (Yissum Research Development Company of the Hebrew …, priority 2010, dated 2014).
Read-outs that look alike come from different tables or passages of the source.

System: PBMC
Test: PBMC proliferation, BrdU incorporation
Assay type: cell-based, human
Settings: Homo sapiens
Method: Blood samples were taken from healthy donors and loaded on a Ficoll density gradient to purify the PBMC population. T cells were purified by human anti-CD3 using an autoMACS instrument (Miltenyi Biotec, Bergisch-Gladbach, Germany), according to the manufacturer's instructions. The identity of T cells was confirmed by flow cytometry, as they stained positive for CD3. Cells were stimulated with ConA (10 μg/ml), ODN2006 (0.5 μg/ml; Enzo Life Sciences), or LPS (50 μg/ml; Sigma-Aldrich, Steinheim, Germany), for 72 h in the presence of the inhibitor, and their proliferation was measured in the BrdU incorporation assay as will be later described.
Cells were depleted of fetal calf serum (FCS) for 12 hours. They were then stimulated to proliferate by addition of ConA (10 μg/ml) for PBMC from healthy individuals and for Jurkat cells, FCS (10%) for HEK293 and A375 cells, PDGF (30 ng/ml) for NIH 3T3 cells, and EGF (30 ng/ml) for MDA-MB-231, Cells (1×10^5) were cultured in 96-well plates for 3 days in the presence or absence of inhibitors at the concentrations specified in the text. Each condition was tested in duplicate wells.
Proliferation was assessed by BrdU incorporation using a colorimetric ELISA kit (Roche, Germany). Subsequent to labeling with 10 μM BrdU, DNA was denatured and the cells were incubated with anti-BrdU-POD, prior to the addition of colorimetric substrate (TMB). The reaction product was quantified by measuring absorbance at 450 nm in an ELISA plate reader (ELx800 BIO-TEK Instruments Inc.).
Since we were not prejudiced towards any specific protein kinase, we used a biological assay for T cell proliferation. We tested our libraries for inhibition of proliferation of PBMC and Jurkat cells (Table 3). Cell proliferation was measured by BrdU uptake. […] PBMC cells were stimulated by a non-specific T cell mitogen, Concanavalin A (ConA). All of the compounds that were tested inhibited proliferation at micromolar or sub-micromolar concentrations.

## COc1cc(-c2nc(Nc3ccc(C)cc3)c3ccccc3n2)cc(OC)c1OC [Compound 2, N-p-tolyl-2-(3,4,5-trimethoxyphenyl)quinazolin-4-amine]
PBMC, ConA 10 μg/ml, 72 h, read-out: IC50 ConA-stimulated proliferation of PBMC
  IC50: ~100 nM
PBMC, ODN2006 0.5 μg/ml or LPS 50 μg/ml, 72 h, read-out: IC50 ODN2006 and LPS-stimulated proliferation of PBMCs
  IC50: ~500 nM
ConA-stimulated PBMC, BrdU uptake, nM ± SD, read-out: IC50 PBMC proliferation inhibition
  IC50: 70 nM
PBMC, non-stimulated, BrdU uptake, read-out: IC50 of non-stimulated cells
  IC50: 50 nM
